Test results as given in US11078170B2 (Assembly Biosciences, Inc., priority 2017, dated 2021).

Tested on: HBV viral production from HepAD38 cells
Test: Activity of test compounds on viral production from HepAD38 cells (viral load by qPCR of HBV core sequence in supernatant)
Format: cell-based
Details: Hepatitis B virus, 120 h, 5 days incubation, HBV DNA in supernatant by qPCR, top concentration 10 μM, read-out: Viral Load EC50 Activity range
Protocol: Assay Measuring Activity of Test Compounds on Viral Production from HepAD38 Cells
HepAD38 cells grown in a T-150 flask (Corning, cat #: 430825) with Growth Medium (DMEM/F12 (1:1) (Hyclone, cat #: SH30023.02), 1×Pen/Strep (Invitrogen, cat #: 15140-122), 10% FBS (Tissue Culture Biologics, cat #: 101), 250 μg/mL G418 (Alfa Aesar, cat #: J62671), 1 μg/mL Tetracycline (Teknova, cat #: T3320)) were detached with 0.25% trypsin-EDTA (Invitrogen, cat #: 25200-056). Tetracycline-free treatment medium (15 mL DMEM/F12 (1:1) 1× Pen/step, with 2% FBS, Tet-system approved (Clontech, cat #: 631106) were then added to mix, transferred into a 50 ml conical tube (Falcon, cat #: 21008-918) and spun at 1300 rpm for 5 min. Pelleted cells were then re-suspended/washed with 50 mL of 1×DPBS (Invitrogen, cat #: 14190-136) 2 times and 50 mL treatment medium twice. HepAD38 cells were then re-suspended with 10 mL of treatment medium, syringed and counted. Wells of 96-well clear bottom TC plate (Corning, cat #: 3904) were seeded at 50,000 cells/well in 180 μL of treatment medium, and 20 μL of either 10% DMSO (Sigma, cat #: D4540) as controls or a 10× solution of test compounds in 10% DMSO in treatment media was added for a final compound concentration starting at 10 μM, and plates were incubated in 5% CO2 incubator at 37° C. for 5 days.
Subsequently viral load production was assayed by quantitative PCR (qPCR) of the HBV core sequence. PCR reaction mixture containing forward primers HBV-f 5′-CTGTGCCTTGGGTGGCTTT-3′, which is SEQ ID NO 1, (IDT DNA), Reverse primers HBV-r 5′-[…]-3′, which is SEQ ID NO 2 (IDT DNA), Fluorescent TaqMan™ Probes HBV-probe 5′-FAM/AGCTCCAAA/ZEN/[…]/3IABkFQ-3′ (IDT DNA), which is SEQ ID NO 3, 10 μL/well of PerfeCTa® qPCR ToughMix® (Quanta Biosciences, Cat #: 95114-05K), and 6 µL/well of DEPC water (Alfa Aesar, cat #: J62087) was prepared. Four μL of supernatant was added to 16 μL of the reaction mixture in a qPCR plate (Applied Biosytems, Cat #: 4309849), sealed with a film (Applied Biosystems, Cat #: 4311971), centrifuged for a few seconds, and subsequently run on an Applied Biosystems VIIA7. The PCR mixture was incubated at 45° C. for 5 min, then 95° C. for 10 min, followed by 40 cycles of 10 seconds at 95° C. and 20 seconds at 60° C. Viral load was quantified against known HBV DNA standards by using ViiA™ 7 Software. Viral load in the supernatant from wells with treated cells were compared against viral load in supernatant from DMSO control wells (≥3 per plate). Cell viability assay was performed with CellTiter-Glo Luminescent Cell Viability Assay (Promega, cat #: G7573) with modification. Mixed appropriate amount of CellTiter-Glo (CTG) 1×DPBS in a 1:1 ratio, added 100 uL of the mixture to each well followed completely removal of all supernatant in each well without touching cell surface. Incubated the plate at room temperature for 10 min on an orbital shaker, and then read the plate with a plate reader (TECAN M1000 or Envision). EC50 or CC50 values were calculated through curve-fitting of the four-parameter nonlinear-logistic-regression model (GraphPad Prism or Dotmatics). CC50 values were all >10 μM.

Row | Compound | EC50
1 | CN1[C@@H](C(=O)Nc2ccc(F)c(Cl)c2)C[C@H](c2ccc(-c3cn(C)cn3)s2)NS1(=O)=O [HBV-CSU-266-Trans-ISO-I, (3R,5R)-N-(3-chloro-4-fluorophenyl)-2-methyl-5-(5-(1-methyl-1H-imidazol-4-yl)thiophen-2-yl)-1,2,6-thiadiazinane-3-carboxamide 1,1-dioxide] | < 1000 nM
2 | Cc1ncc([C@@H]2C[C@H](C(=O)Nc3ccc(F)c(Cl)c3)N(C)S(=O)(=O)N2)s1 [HBV-CSU-224-ISO-II, Cis-N-(3-Chloro-4-fluorophenyl)-2-methyl-5-(2-methylthiazol-5-yl)-1,2,6-thiadiazinane-3-carboxamide 1,1-dioxide] | > 5000 nM
3 | CN1[C@H](C(=O)Nc2ccc(F)c(Cl)c2)C[C@H](c2ccc(Cl)cc2)NS1(=O)=O [HBV-CSU-265-ISO-I] | < 1000 nM
4 | CN1C(C(=O)Nc2ccc(F)c(Cl)c2)CC(c2ncc(-c3cncs3)s2)NS1(=O)=O (racemic) [HBV-CSU-278, Cis-5-([5,5′-Bithiazol]-2-yl)-N-(3-chloro-4-fluorophenyl)-2-methyl-1,2,6-thiadiazinane-3-carboxamide 1,1-dioxide] | < 1000 nM
5 | Cc1ccc([C@H]2C[C@@H](C(=O)Nc3ccc(F)c(Cl)c3)N(C)S(=O)(=O)N2)s1 [HBV-CSU-115-ISO-I, Cis-N-(3-chloro-4-fluorophenyl)-2-methyl-5-(5-methylthiophen-2-yl)-1,2,6-thiadiazinane-3-carboxamide 1,1-dioxide] | < 1000 nM
6 | CN1[C@H](C(=O)Nc2ccc(F)c(Br)c2)C[C@H](c2ccc(F)cc2)NS1(=O)=O [HBV-CSU-211-ISO-I, Cis-N-(3-Bromo-4-fluorophenyl)-5-(4-fluorophenyl)-2-methyl-1,2,6-thiadiazinane-3-carboxamide 1,1-dioxide] | < 1000 nM
7 | O=C(Nc1ccc(F)c(Cl)c1)[C@H]1C[C@@H](c2nccs2)NS(=O)(=O)N1CCCO [HBV-CSU-078-ISO-II, Cis-N-(3-Chloro-4-fluorophenyl)-2-(3-hydroxypropyl)-5-(thiazol-2-yl)-1,2,6-thiadiazinane-3-carboxamide 1,1-dioxide] | > 5000 nM
8 | CN1[C@H](C(=O)Nc2ccc(F)c(Cl)c2)C[C@H](c2ccc(-c3ccc(F)cn3)s2)NS1(=O)=O [HBV-CSU-242-ISO-I, Cis-N-(3-chloro-4-fluorophenyl)-5-(5-(5-fluoropyridin-2-yl)thiophen-2-yl)-2-methyl-1,2,6-thiadiazinane-3-carboxamide 1,1-dioxide] | < 1000 nM
9 | CN1C(C(=O)Nc2ccc(F)c(C#N)c2)CC(c2cccs2)NS1(=O)=O (racemic) [HBV-CSU-045, Cis-N-(3-cyano-4-fluorophenyl)-2-methyl-5-(thiophen-2-yl)-1,2,6-thiadiazinane-3-carboxamide 1,1-dioxide] | < 1000 nM
10 | CN1[C@@H](C(=O)Nc2ccc(F)c(Cl)c2)C[C@@H](c2ccc(-c3cnn(C(F)(F)F)c3)s2)NS1(=O)=O [HBV-CSU-321-ISO-II, Cis-N-(3-Chloro-4-fluorophenyl)-2-methyl-5-(5-(1-(trifluoromethyl)-1H-pyrazol-4-yl)thiophen-2-yl)-1,2,6-thiadiazinane-3-carboxamide 1,1-dioxide] | > 5000 nM
11 | CN1C(C(=O)Nc2ccc(F)c(Cl)c2)CC(c2ncc(Br)s2)NS1(=O)=O (racemic) [HBV-CSU-122, Cis-5-(5-bromothiazol-2-yl)-N-(3-chloro-4-fluorophenyl)-2-methyl-1,2,6-thiadiazinane-3-carboxamide 1,1-dioxide] | < 1000 nM
12 | CN1C(C(=O)Nc2ccc(F)c(Cl)c2)CC(c2cc(Br)cs2)NS1(=O)=O (stereo not shown) [HBV-CSU-146, 5-(4-Bromothiophen-2-yl)-N-(3-chloro-4-fluorophenyl)-2-methyl-1,2,6-thiadiazinane-3-carboxamide 1,1-dioxide] | < 1000 nM
13 | COCCN1[C@H](c2cccs2)C[C@H](C(=O)Nc2ccc(F)c(Cl)c2)NS1(=O)=O [HBV-CSU-044-ISO-I, Cis-N-(3-Chloro-4-fluorophenyl)-6-(2-methoxyethyl)-5-(thiophen-2-yl)-1,2,6-thiadiazinane-3-carboxamide 1,1-dioxide] | > 5000 nM
14 | CN1[C@H](C(=O)Nc2ccc(F)c(Cl)c2)C[C@H](c2ncc(Br)s2)NS1(=O)=O [HBV-CSU-122-ISO-I, (3S,5R)-5-(5-bromothiazol-2-yl)-N-(3-chloro-4-fluorophenyl)-2-methyl-1,2,6-thiadiazinane-3-carboxamide 1,1-dioxide] | < 1000 nM
15 | O=C(Nc1ccc(F)c(Cl)c1)[C@@H]1C[C@H](c2nccs2)NS(=O)(=O)N1CCCN1CCOCC1 [HBV-CSU-103-ISO-II] | 1000 to 5000 nM
16 | CN1[C@@H](C(=O)Nc2ccc(F)c(Cl)c2)C[C@@H](c2cc(-c3ccc(F)cc3)cs2)NS1(=O)=O [HBV-CSU-239-ISO-II] | 1000 to 5000 nM
17 | CN1C(C(=O)Nc2ccc(F)c(Cl)c2)CC(c2ccc3ncsc3c2)NS1(=O)=O (stereo not drawn) [HBV-CSU-273, Cis-5-(benzo[d]thiazol-6-yl)-N-(3-chloro-4-fluorophenyl)-2-methyl-1,2,6-thiadiazinane-3-carboxamide 1,1-dioxide] | < 1000 nM
18 | CN1[C@H](C(=O)Nc2ccc(F)c(Cl)c2)C[C@H](c2ncc(-c3ccccn3)s2)NS1(=O)=O [HBV-CSU-176-ISO-I, Cis-N-(3-chloro-4-fluorophenyl)-2-methyl-5-(5-(pyridin-2-yl)thiazol-2-yl)-1,2,6-thiadiazinane-3-carboxamide 1,1-dioxide] | < 1000 nM
19 | CN1[C@H](C(=O)Nc2ccc(F)c(Cl)c2)C[C@@H](c2ncc(Br)s2)NS1(=O)=O [HBV-CSU-122-Trans-ISO-II, (3S,5S)-5-(5-bromothiazol-2-yl)-N-(3-chloro-4-fluorophenyl)-2-methyl-1,2,6-thiadiazinane-3-carboxamide 1,1-dioxide] | 1000 to 5000 nM
20 | CN1[C@H](C(=O)Nc2ccc(F)c(Cl)c2)C[C@H](c2ccc(F)c(F)c2)NS1(=O)=O [HBV-CSU-230-ISO-I, Cis-N-(3-Chloro-4-fluorophenyl)-5-(3,4-difluorophenyl)-2-methyl-1,2,6-thiadiazinane-3-carboxamide 1,1-dioxide] | < 1000 nM
21 | CC(C)OCCN1C(C(=O)Nc2ccc(F)c(Cl)c2)CC(c2nccs2)NS1(=O)=O (stereo not drawn) [HBV-CSU-143, Cis-N-(3-Chloro-4-fluorophenyl)-2-(2-isopropoxyethyl)-5-(thiazol-2-yl)-1,2,6-thiadiazinane-3-carboxamide 1,1-dioxide] | < 1000 nM
22 | Cc1ncc(C2CC(C(=O)Nc3ccc(F)c(Cl)c3)N(C)S(=O)(=O)N2)s1 (racemic) [HBV-CSU-224, Cis-N-(3-Chloro-4-fluorophenyl)-2-methyl-5-(2-methylthiazol-5-yl)-1,2,6-thiadiazinane-3-carboxamide 1,1-dioxide] | < 1000 nM
23 | CN(C(=O)C1CC(c2cccs2)NS(=O)(=O)N1C)c1ccc(F)c(Cl)c1 (stereo not drawn) [HBV-CSU-015, Cis-N-(3-Chloro-4-fluorophenyl)-N-2-dimethyl-5-(thiophen-2-yl)-1,2,6-thiadiazinane-3-carboxamide 1,1-dioxide] | 1000 to 5000 nM
24 | O=C(Nc1ccc(F)c(Cl)c1)[C@@H]1C[C@H](c2nccs2)NS(=O)(=O)N1CCc1c[nH]nn1 [HBV-CSU-092-ISO-I, Cis-2-(2-(1H-1,2,3-Triazol-4-yl)ethyl)-N-(3-chloro-4-fluorophenyl)-5-(thiazol-2-yl)-1,2,6-thiadiazinane-3-carboxamide 1,1-dioxide] | < 1000 nM
25 | Cc1c(-c2ccc([C@@H]3C[C@H](C(=O)Nc4ccc(F)c(Cl)c4)N(C)S(=O)(=O)N3)s2)cnn1C [HBV-CSU-312-ISO-II, Cis-N-(3-chloro-4-fluorophenyl)-5-(5-(1,5-dimethyl-1H-pyrazol-4-yl)thiophen-2-yl)-2-methyl-1,2,6-thiadiazinane-3-carboxamide 1,1-dioxide] | 1000 to 5000 nM
